In US9890111B2, “Crystal structure of bifunctional transglycosylase PBP1b from E. coli and inhibitors thereof” (Academia Sinica, priority 2008, dated 2018):
In brackets after ≈: the same amount, converted by molar mass.

How the values were obtained:
[1] = tested on: Mycobacterium smegmatis (ATCC11565, MS); test: Minimal inhibitory concentration (MIC), MS; format: cell-based; details: for MIC MS: Mycobacterium smegmatis ATCC11565; for MIC: Mycolicibacterium smegmatis, ATCC11565, Mycobacterium smegmatis ATCC11565, read-out: MIC MS
Procedure: (§1) The minimal inhibitory concentration (MIC) of tested compounds was determined following the NCCLS standard. The experiments were conducted in 96-well microtiter plates using two-fold dilutions in Muller-Hilton broth with (Streptococcus pneumonia) or without blood (Bacillus subtilis, Enterococcus faecalis, Staphylococcus aureus, Escherichia coli, MRSA, Actinetobacter baumannii, Pseudomonas aeruginosa, Stenotrophomonas maltophilia, and Mycobacterium smegmatis). Exponentially growing cells at 5×10^5 cells/ml were incubated with test compounds at various concentrations. After an 18 h to 24 h incubation at 37° C., MIC was determined as the minimal concentration of the compound that prevents bacterial growth.

[2] = tested on: methicillin-resistant Staphylococcus aureus (ATCC33592, MRSA); test: Minimal inhibitory concentration (MIC), MRSA; format: cell-based; details: methicillin-resistant Staphylococcus aureus ATCC33592; for MIC: Staphylococcus aureus, read-out: MIC MRSA
Procedure: as §1

[3] = target: T1, penicillin-binding protein 1b from E. coli (transglycosylase) (Escherichia coli, UniProt P02919); test: Lipid II polymerization / transglycosylase (TG) activity assay; format: biochemical; details: for TG Activity at various concentration of cmpd: 25 μM: 25 μM compound; for TG Activity at various concentration of cmpd: 25 μM / TG Activity at various concentration of cmpd: 50 μM / TG Activity at various concentration of cmpd: 100 μM: TG activity remaining (0% = full inhibition); for TG Activity at various concentration of cmpd: 50 μM: 50 μM compound; for TG Activity at various concentration of cmpd: 100 μM: 100 μM compound; for remaining activity at 50 µM: read-out: TG Activity at various concentration of cmpd: 50 μM; for remaining activity at 100 µM: read-out: TG Activity at various concentration of cmpd: 100 μM
T1 construct: PBP1b[58-804] was amplified from E. coli genomic DNA and cloned into the expression vector pET15b; His6 (N, cleaved yes); made in house; host or cells: E. coli BL21(DE3)
T1 sequence (P02919 58-804): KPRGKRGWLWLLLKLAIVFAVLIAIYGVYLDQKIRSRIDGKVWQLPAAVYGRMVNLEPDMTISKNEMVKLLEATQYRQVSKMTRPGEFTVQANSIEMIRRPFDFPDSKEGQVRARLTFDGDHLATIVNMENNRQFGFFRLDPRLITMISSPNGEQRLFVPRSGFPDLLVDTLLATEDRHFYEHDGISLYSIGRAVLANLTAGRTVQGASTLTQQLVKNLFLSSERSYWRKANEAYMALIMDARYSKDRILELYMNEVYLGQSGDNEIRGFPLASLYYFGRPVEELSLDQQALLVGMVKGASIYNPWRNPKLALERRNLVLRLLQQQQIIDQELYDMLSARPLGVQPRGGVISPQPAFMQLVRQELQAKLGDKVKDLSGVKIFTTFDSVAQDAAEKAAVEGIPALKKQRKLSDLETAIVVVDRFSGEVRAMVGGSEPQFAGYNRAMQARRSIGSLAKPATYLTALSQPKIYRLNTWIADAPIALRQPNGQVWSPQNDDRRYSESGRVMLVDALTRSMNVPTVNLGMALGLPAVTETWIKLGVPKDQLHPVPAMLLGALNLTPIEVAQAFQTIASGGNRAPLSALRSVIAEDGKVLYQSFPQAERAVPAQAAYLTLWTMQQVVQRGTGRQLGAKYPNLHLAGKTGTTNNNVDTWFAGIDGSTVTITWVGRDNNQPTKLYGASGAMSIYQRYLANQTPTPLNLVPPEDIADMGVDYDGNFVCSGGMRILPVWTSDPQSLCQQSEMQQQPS
Procedure: Lipid II polymerization assays were carried out by incubating 100 μM fluorophore-labeled lipid II and penicillin-binding protein 1b from E. coli in tubes containing 10 ng/μL N-acetyl muramidase in 50 mM Tris.HCl (pH 8.0), 10 mM MgCl2, 0.1% Triton X-100, 10% DMSO, and 15% MeOH for 30 minutes (Van Nieuwenhze et al. J Am Chem Soc 2002, 124, 3656.). The fluorophore can be dansyl chloride, NBD, BODIPY, fluorescein. Reaction supernatants were then injected onto an anion-exchange HPLC column (SAX1, Supelco Co.) and eluted with a linear gradient of ammonium acetate (20 mM to 0.5 M) in methanol. The eluant was monitored for fluorescence with λex=466 nm and λem=535 nm.
Purified protein was concentrated in 20 mM Tris-HCl (pH 8.0), 300 mM NaCl, and 1 mM DDM. Instead of using Dansyl lipid II, 6-(N-(7-nitrobenz-2-oxa-1,3-diazol-4-yl)amino) hexanoyl (NBD)-labeled Lipid II was prepared as described (Taubes G (2008) Science 321:356-361; Payne D J (2008) Science 321:1644-1645) and used as a substrate to measure TG enzymatic activity, with approach similar to what has been described previously (Holtje J V (1998) Microbiol Mol Biol Rev 62:181-203). Assays were carried out by using the following condition: NBD-Lipid II, 20 nM protein, 50 mM Tris HCl (pH 8.0), 10 mMCaCl2, 0.085% decyl PEG (Anatrace), and 15% MeOH at 37° C. for 0, 1, 3, 5, 7, 9, 20, and 30 min. The concentration of NBD-Lipid II was varied from 1 to 100 μM to determine the rate of the TG activity. After the reaction, 200 μM moenomycin was added to stop the reaction, and 13 μM muramidase (Sigma-Aldrich) was added to digest the TG products to result in NBD-Lipid II without lipid tails. The fluorescent signal decrease of substrate and increase of NBD-Lipid II without lipid tails were detected by anion-exchange column SAX1 (Supelco) on HPLC (Hitachi). The elution procedures was a linear gradient of ammonium acetate (20 mM to 1 M) in MeOH monitored at λexcitation=466 nm and λemission=535 nm. The kinetic parameter was estimated by following the Michaelis-Menten equation. To investigate the importance of transmembrane (TM) helix, PBP1b and PBP1bΔTM (residues Met-1 to Leu-87 were removed) were extracted with the buffer containing 20 mM Tris-HCl (pH 8.0), 300 mM NaCl, and 13 mM FOS-CHOLINE-14 (Anatrace). The protein was purified by nickel chelation chromatography in the presence of 1 mM DDM. The activity assay was carried out by using the following condition: 12 μM NBD-Lipid II, 20 nM protein, 50 mM Tris-HCl (pH 8.0), 10 mM CaCl2, 0.085% decyl PEG, and 15% MeOH at 37° C. for time 0, 1, 3, 5, 7, 9, 20, and 30 min. The initial velocity was used to compare the activity of full-length PBP1b and PBP1bΔTM.

[4] = tested on: Staphylococcus aureus (ATCC29213, SA); test: Minimal inhibitory concentration (MIC), SA; format: cell-based; details: for MIC SA: Staphylococcus aureus ATCC29213; for MIC: Staphylococcus aureus, ATCC29213, Staphylococcus aureus ATCC29213, read-out: MIC SA
Procedure: as §1

Structure (SMILES)	TG Activity at various concentration of cmpd: 50 μM [3]	MIC SA [4]	TG Activity at various concentration of cmpd: 100 μM [3]	other results
Cc1ccc(C(C)C)c(Oc2ccc(Cl)cc2NC(=O)c2cc(I)cc(I)c2O)c1 [Compound 208]	0%	4 µg/mL (≈ 6.18 µM)		MIC MS [1]: 2 µg/mL (≈ 3.09 µM); MIC MRSA [2]: 0.5 µg/mL (≈ 0.772 µM); TG Activity at various concentration of cmpd: 25 μM [3]: 100%
O=C(Nc1ccc(Cl)cc1)c1cc(Br)cc(Br)c1O [KTS-9]	100%	1 µg/mL (≈ 2.47 µM)	100%	MIC MS [1]: 2 µg/mL (≈ 4.93 µM); MIC MRSA [2]: 1 µg/mL (≈ 2.47 µM)
O=C(Nc1cc(Cl)ccc1Oc1ccccc1)c1cc(Br)cc(Br)c1 [Compound A2N1]	100%	>32 µg/mL	100%	
O=C(Nc1cc(Cl)ccc1Oc1ccccc1)c1ccc(O)c(O)c1O [Compound A5N1]	100%	8 µg/mL (≈ 21.5 µM)	0%	
Cc1ccc(C(C)C)c(Oc2ccccc2NC(=O)c2cc(Br)cc(Br)c2O)c1 [Compound 204]	0%	1 µg/mL (≈ 1.93 µM)		MIC MS [1]: 8 µg/mL (≈ 15.4 µM); MIC MRSA [2]: 4 µg/mL (≈ 7.7 µM); TG Activity at various concentration of cmpd: 25 μM [3]: 50%
O=C(Nc1ccccc1O)c1cc(Br)cc(Br)c1O [KTS-3]				MIC [1]: 4 µg/mL (≈ 10.3 µM); MIC [2]: 4 µg/mL (≈ 10.3 µM); remaining activity at 50 µM [3]: 70%; MIC [4]: 4 µg/mL (≈ 10.3 µM)
O=C(c1ccc(Cl)cc1)c1ccc(Oc2ccc(Cl)cc2)c(NC(=O)c2cc(I)cc(I)c2O)c1 [Compound 207]	0%	8 µg/mL (≈ 11 µM)		MIC MS [1]: 32 µg/mL (≈ 43.8 µM); MIC MRSA [2]: 4 µg/mL (≈ 5.48 µM); TG Activity at various concentration of cmpd: 25 μM [3]: 20%
Cc1ccc(NC(=O)c2ccccc2)cc1Cl [Compound A4N3]	100%	>32 µg/mL	100%	
O=C(Nc1ccc(Cl)cc1)c1ccccc1O [Compound A3N4]				remaining activity at 50 µM [3]: 100%; remaining activity at 100 µM [3]: 100%; MIC [4]: 8 µg/mL (≈ 32.3 µM)
Cc1ccc(C(C)C)c(Oc2ccc(Cl)cc2NC(=O)c2cc(Cl)cc(Cl)c2O)c1 [Compound 209]	0%	1 µg/mL (≈ 2.15 µM)		MIC MS [1]: 0.5 µg/mL (≈ 1.08 µM); MIC MRSA [2]: 0.25 µg/mL (≈ 0.538 µM); TG Activity at various concentration of cmpd: 25 μM [3]: 60%
Cc1ccc(NC(=O)c2ccc(O)c(O)c2O)cc1Cl [Compound A5N3]				remaining activity at 50 µM [3]: 100%; remaining activity at 100 µM [3]: 0%; MIC [4]: 4 µg/mL (≈ 13.6 µM)
O=C(Nc1ccccc1Oc1ccccc1)c1cc(Br)cc(Br)c1O [Compound A1N2]	100%	>32 µg/mL	100%	
O=C(Nc1cc(Cl)ccc1Oc1ccccc1)c1ccccc1 [Compound A4N1]	100%	>32 µg/mL	100%	
O=C(Nc1cccc(Cl)c1)c1cc(Br)cc(Br)c1O [Compound 203]				MIC [1]: 4 µg/mL (≈ 9.87 µM); MIC [2]: 2 µg/mL (≈ 4.93 µM); remaining activity at 50 µM [3]: 100%; remaining activity at 100 µM [3]: 100%; MIC [4]: 2 µg/mL (≈ 4.93 µM)
O=C(Nc1ccccc1Oc1ccccc1)c1ccc(O)c(O)c1O [Compound A5N2]	100%	8 µg/mL (≈ 23.7 µM)	0%	
Cc1ccc(C(=O)c2cc(Cl)cc(NC(=O)c3cc(Br)cc(Br)c3O)c2Cl)cc1 [Compound 145]	100%	>4 µg/mL	0%	MIC MS [1]: >4 µg/mL; MIC MRSA [2]: >4 µg/mL

Structure (SMILES)	TG Activity at various concentration of cmpd: 50 μM [3]	MIC SA [4]	TG Activity at various concentration of cmpd: 100 μM [3]	other results
O=C(Nc1cc(Cl)ccc1Oc1ccccc1)c1ccccc1O [Compound A3N1]	100%	1 µg/mL (≈ 2.94 µM)	100%	
Cc1ccc(C(C)C)cc1Oc1ccc(Cl)cc1NC(=O)c1cc(Cl)cc(Br)c1O [Compound 206]	0%	1 µg/mL (≈ 1.96 µM)		MIC MS [1]: 1 µg/mL (≈ 1.96 µM); MIC MRSA [2]: 0.5 µg/mL (≈ 0.982 µM); TG Activity at various concentration of cmpd: 25 μM [3]: 60%
Cc1ccc(NC(=O)c2cc(Br)cc(Br)c2)cc1Cl [Compound A2N3]	100%	>32 µg/mL	100%	
Cc1ccc(NC(=O)c2ccc(O)cc2)cc1Cl [Compound A6N3]	100%	32 µg/mL (≈ 122 µM)	100%	
O=C(Nc1ccccc1Oc1ccccc1)c1ccc(O)cc1 [Compound A6N2]	100%	>32 µg/mL	100%	
Cc1ccc(C(C)C)c(Oc2ccccc2NC(=O)c2cc(I)cc(I)c2O)c1 [Compound 201]	0%	4 µg/mL (≈ 6.52 µM)		MIC MS [1]: 8 µg/mL (≈ 13 µM); MIC MRSA [2]: 2 µg/mL (≈ 3.26 µM); TG Activity at various concentration of cmpd: 25 μM [3]: 30%
Cc1ccc(NC(=O)c2ccccc2O)cc1Cl [Compound A3N3]				remaining activity at 50 µM [3]: 100%; remaining activity at 100 µM [3]: 100%; MIC [4]: 4 µg/mL (≈ 15.3 µM)
O=C(Nc1ccc([N+](=O)[O-])cc1)c1ccccc1O [Compound A3N5]				remaining activity at 50 µM [3]: 100%; remaining activity at 100 µM [3]: 100%; MIC [4]: 4 µg/mL (≈ 15.5 µM)
COc1ccc(NC(=O)c2ccccc2O)cc1 [Compound A3N6]				remaining activity at 50 µM [3]: 100%; remaining activity at 100 µM [3]: 100%; MIC [4]: > 32 µg/mL
O=C(Nc1cc(Cl)ccc1Cl)c1cc(Cl)cc(Cl)c1O [Compound 141]				MIC [1]: 2 µg/mL (≈ 5.7 µM); MIC [2]: 0.5 µg/mL (≈ 1.42 µM); MIC [4]: 1 µg/mL (≈ 2.85 µM)
O=C(Nc1cc(Cl)ccc1Oc1ccccc1)c1ccc(O)cc1 [Compound A6N1]	100%	16 µg/mL (≈ 47.1 µM)	100%	
O=C(Nc1cc(Cl)c(Cl)c(Cl)c1)c1cc(Cl)cc(Cl)c1O [Compound 142]		0.5 µg/mL (≈ 1.3 µM)		MIC MS [1]: 0.125 µg/mL (≈ 0.324 µM); MIC MRSA [2]: 0.5 µg/mL (≈ 1.3 µM)
O=C(Nc1ccccc1Oc1ccccc1)c1ccccc1O [Compound A3N2]	100%	8 µg/mL (≈ 26.2 µM)	100%	
O=C(Nc1ccccc1Oc1ccccc1)c1cc(Br)cc(Br)c1 [Compound A2N2]	100%	>32 µg/mL	100%	
O=C(Nc1ccc(Cl)cc1)c1cc(Br)cc(Br)c1O [Compound A1N4]	100%	1 µg/mL (≈ 2.47 µM)		
